The source of these data is patent US20210000844A1, “OPHTHALMIC COMPOSITION COMPRISING DIQUAFOSOL AND CATIONIC POLYMER” (Santen Pharmaceutical Co., Ltd., priority 2018, published 2021).

Each structure is given as a SMILES string. A value given as a limit tells only on which side of the number the result lay.

The assay has as its system Cultured peripheral nerve cells (dorsal neuro ganglion neuron). Briefly: Test 4: stimulatory property of diquafosol sodium to peripheral nerves (intracellular calcium fluorescence). The class given is cell-based. The following applies: stimulation control group (buffer solution instead of formulation solution); diquafosol sodium final concentration 0.3%. The procedure:
The stimulatory property of diquafosol sodium to peripheral nerves in the presence of PVP which is a type of […] was examined. “PVP” denotes polyvinylpyrrolidone. “CMC-Na” denotes carboxymethylcellulose sodium. “HPMC” denotes hydroxypropylmethylcellulose. “CVP” denotes a carboxyvinyl polymer.
Cultured peripheral nerve cells (dorsal neuro ganglion neuron; purchased from Lonza Japan Ltd.) were incubated in a buffer solution containing an intracellular calcium indicator fluorescent dye (FLIPR Calcium 6 Assay Kit; Molecular Devices, LLC). 40% of the total amount of the buffer solution was replaced by each of the above-described formulation solutions. A non-stimulation group and a stimulation control group were similarly treated with the buffer solution instead of the formulation solution. The cells were left standing at room temperature, followed by starting fluorescence measurement over time with the calcium indicator dye using a fluorescence plate reader. 60 seconds after the start of the measurement, diquafosol sodium (final concentration: 0.3%) was added, and the measurement of fluorescence intensity was continued.
The maximum fluorescence intensity (RFUmax) after addition of diquafosol sodium was calculated as a relative value against the fluorescence intensity (RFU) immediately before the addition, with the fluorescence intensity (RFU) defined as 100%.

`O=c1ccn([C@@H]2O[C@H](COP(=O)([O-])OP(=O)([O-])OP(=O)([O-])OP(=O)([O-])OC[C@H]3O[C@@H](n4ccc(=O)[nH]c4=O)[C@H](O)[C@@H]3O)[C@@H](O)[C@H]2O)c(=O)[nH]1.[Na+].[Na+].[Na+].[Na+]` [diquafosol sodium, diquafosol tetrasodium salt]: the “maximum fluorescence intensity (RFUmax) after addition of diquafosol sodium” value was no less than 103.5%.
